pIC50: −log10 of the molar value.
Target: P2X7 receptor (Homo sapiens (Human), UniProt Q99572)
Assay: P2X7 FLIPR assay (BzATP-stimulated calcium fluorescence, antagonist IC50)
Type: cell-based
Conditions: not given
How it was run: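 Cells expressing P2X7 receptor (human, rat or mouse), plated 24 hours earlier in low-serum medium, loaded with Fluo-4 NW dye (30 min 37° C, 30 min room temperature).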

Chain of P2X7 receptor (Q99572 whole entry): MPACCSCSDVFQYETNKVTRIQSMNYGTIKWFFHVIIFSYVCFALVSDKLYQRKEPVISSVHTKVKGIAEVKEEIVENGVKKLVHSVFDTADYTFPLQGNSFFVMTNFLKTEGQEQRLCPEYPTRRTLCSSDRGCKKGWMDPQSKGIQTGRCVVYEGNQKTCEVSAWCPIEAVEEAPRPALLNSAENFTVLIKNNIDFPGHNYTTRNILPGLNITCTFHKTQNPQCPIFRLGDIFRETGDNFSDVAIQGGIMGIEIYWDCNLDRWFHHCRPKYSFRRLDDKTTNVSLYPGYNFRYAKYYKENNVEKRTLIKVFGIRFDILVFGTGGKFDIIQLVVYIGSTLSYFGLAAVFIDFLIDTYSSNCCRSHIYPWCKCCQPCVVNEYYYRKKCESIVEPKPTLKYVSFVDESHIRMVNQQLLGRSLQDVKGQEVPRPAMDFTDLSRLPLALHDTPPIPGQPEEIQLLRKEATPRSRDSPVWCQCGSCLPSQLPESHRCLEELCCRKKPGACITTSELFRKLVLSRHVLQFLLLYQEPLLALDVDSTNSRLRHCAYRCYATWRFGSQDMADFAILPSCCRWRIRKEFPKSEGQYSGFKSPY

| Compound | pIC50 |
| --- | --- |
| Cc1ncc(C(CNC(=O)c2cccc(Cl)c2Cl)CC2(C(F)(F)F)CC2)cn1 (single isomer, unassigned; (+)) [(+)2,3-dichloro-N-[2-(2-methylpyrimidin-5-yl)-3-[1-(trifluor] [(+)2,3-dichloro-N-[2-(2-methylpyrimidin-5-yl)-3-[1-(trifluoromethyl)cyclopropyl]propyl]benzamide] | 8.82 |
| O=C(NCC1(c2ccc(Cl)cc2)CCOCC1)c1ccccc1Cl [2-Chloro-N-[4-(4-chloro-phenyl)-tetrahydro-pyran-4-ylmethyl]-benzamide] | 6.10 |
| O=C(NCC(CC1(F)CC1)c1cnc(C(F)(F)F)nc1)c1cccc(Cl)c1Cl (centres unmarked) [2,3-dichloro-N-[3-(1-fluorocyclopropyl)-2-[2-(trifluoromethyl)pyrimidin-5-yl]propyl]benzamide] | 8.03 |
| O=C(NCC(CC1CC1)c1ccc(C(F)(F)F)nc1)c1cccc(Cl)c1F (centres unmarked) [3-chloro-N-(3-cyclopropyl-2-(6-(trifluoromethyl)pyridin-3-yl)propyl)-2-fluorobenzamide] | 6.18 |
| COc1cccc(C(=O)NCC2(c3ccc(F)nc3)CCC(F)(F)CC2)c1F | 7.00 |
| Cc1ccc(C(CNC(=O)c2cccc(Cl)c2Cl)CC(C)C)cn1 (centres unmarked) [2,3-Dichloro-N-[4-methyl-2-(6-methyl-pyridin-3-yl)-pentyl]-benzamide] | 9.00 |
| O=C(NCC(CC1(C(F)F)CC1)c1ccc(C2CC2)nc1)c1cccc(Cl)c1Cl (centres unmarked) [2,3-dichloro-N-[2-(6-cyclopropyl-3-pyridyl)-3-[1-(difluoromethyl)cyclopropyl]propyl]benzamide] | 9.12 |
| Cc1ncc(C2(C(C)NC(=O)c3c(F)cccc3Cl)CCC(F)(F)CC2)cn1 (centres unmarked) [2-chloro-N-[1-[4,4-difluoro-1-(2-methylpyrimidin-5-yl)cyclohexyl]ethyl]-6-fluoro-benzamide] | 5.85 |
| (−)2,3-dichloro-N-[3-cyclopropyl-2]benzamide | 8.72 |
| COc1ccc(Cl)c(C(=O)NCC2(c3ccc(F)nc3)CCC(F)(F)CC2)c1 [2-chloro-N-((4,4-difluoro-1-(6-fluoropyridin-3-yl)cyclohexyl)methyl)-5-methoxybenzamide] | 9.08 |
| Cc1ccc(Cl)c(C(=O)NCC2(c3ccc(Cl)cc3)CCOCC2)c1 [2-Chloro-N-[4-(4-chloro-phenyl)-tetrahydro-pyran-4-ylmethyl]-5-methyl-benzamide] | 7.21 |
| COCCC(CNC(=O)c1cccc(Cl)c1Cl)c1cnc(C(F)(F)F)nc1 (centres unmarked) [2,3-dichloro-N-[4-methoxy-2-[2-(trifluoromethyl)pyrimidin-5-yl]butyl]benzamide] | 5.66 |
| O=C(NCC1(c2ccc(C(F)(F)F)nc2)CCC(F)(F)CC1)c1ccccc1Cl [2-chloro-N-((4,4-difluoro-1-(6-(trifluoromethyl)pyridin-3-yl)cyclohexyl)methyl)benzamide] | 8.70 |
| Cc1ncc(C2(C(C)NC(=O)c3cccc(Cl)c3Cl)CCC(F)(F)CC2)cn1 (centres unmarked) [2,3-dichloro-N-[1-[4,4-difluoro-1-(2-methylpyrimidin-5-yl)cyclohexyl]ethyl]benzamide] | 6.02 |
| O=C(NCC1(c2ccc(F)nc2)CCC(F)(F)CC1)c1cc(C(F)(F)F)ccc1Cl [2-chloro-N-[[4,4-difluoro-1-(6-fluoro-3-pyridyl)cyclohexyl]methyl]-5-(trifluoromethyl)benzamide] | 8.92 |
| Cc1ccc(Cl)c(C(=O)NCC2(c3ccc(F)nc3)CCC(F)(F)CC2)c1 [2-chloro-N-[[4,4-difluoro-1-(6-fluoro-3-pyridyl)cyclohexyl]methyl]-5-methyl-benzamide] | 9.12 |
| O=C(NCC(CC1(C(F)(F)F)CC1)c1ccc(C(F)(F)F)nc1)c1cccc(F)c1Cl (single isomer, unassigned; (+)) [(+)2-chloro-3-fluoro-N-[3-[1-(trifluoromethyl)cyclopropyl]-2] [(+)2-chloro-3-fluoro-N-[3-[1-(trifluoromethyl)cyclopropyl]-2-[6-(trifluoromethyl)-3-pyridyl]propyl]benzamide] | 8.14 |
| Cc1ncc(C(CNC(=O)c2cccc(F)c2Cl)C2CCOCC2)cn1 (centres unmarked) [2-chloro-3-fluoro-N-[2-(2-methylpyrimidin-5-yl)-2-tetrahydropyran-4-yl-ethyl]benzamide] | 6.68 |
| O=C(NCC(CC1CC1)c1cnc(C(F)(F)F)nc1)c1c(F)cccc1Cl (centres unmarked) [2-chloro-N-(3-cyclopropyl-2-(2-(trifluoromethyl)pyrimidin-5-] [2-chloro-N-(3-cyclopropyl-2-(2-(trifluoromethyl)pyrimidin-5-yl)propyl)-6-fluorobenzamide] | 7.66 |
| O=C(NCC1(c2ccc(F)nc2)CCC(F)(F)CC1)c1cc(Cl)ccc1Cl [2,5-dichloro-N-((4,4-difluoro-1-(6-fluoropyridin-3-yl)cyclohexyl)methyl)benzamide] | 8.64 |
| O=C(NCC(CC1(C(F)(F)F)CC1)c1cnc(C(F)(F)F)nc1)c1cccc(F)c1Cl (single isomer, unassigned; (+)) [(+)2-chloro-3-fluoro-N-[3-[1-(trifluoromethyl)cyclopropyl]-2] [(+)2-chloro-3-fluoro-N-[3-[1-(trifluoromethyl)cyclopropyl]-2-[2-(trifluoromethyl)pyrimidin-5-yl]propyl]benzamide] | 8.35 |

Next, values leading:

| pIC50 | Compound |
| --- | --- |
| 8.68 | O=C(NCC(CC1CC1)c1ccc(C(F)(F)F)nc1)c1c(F)cccc1Cl (single isomer, unassigned; (-)) [(−)2-chloro-N-[3-cyclopropyl-2-[6-(trifluoromethyl)-3-pyridy] [(−)2-chloro-N-[3-cyclopropyl-2-[6-(trifluoromethyl)-3-pyridyl]propyl]-6-fluoro-benzamide] |
| 7.30 | O=C(NCC(CC1CC1)c1cnc(C(F)(F)F)nc1)c1cccc(F)c1Cl (single isomer, unassigned; (+)) [(+)2-chloro-N-[3-cyclopropyl-2-[2-(trifluoromethyl)pyrimidin] [(+)2-chloro-N-[3-cyclopropyl-2-[2-(trifluoromethyl)pyrimidin-5-yl]propyl]-3-fluoro-benzamide] |
| 7.36 | O=C(NCC(c1cnc(C(F)(F)F)nc1)C1CCC(F)(F)CC1)c1cccc(F)c1Cl (single isomer, unassigned; (-)) [(−)2-chloro-N-[2-(4,4-difluorocyclohexyl)-2-[2-(trifluoromet] [(−)2-chloro-N-[2-(4,4-difluorocyclohexyl)-2-[2-(trifluoromethyl)pyrimidin-5-yl]ethyl]-3-fluoro-benzamide] |
| 8.05 | COc1cccc(C(=O)NCC(CC2CC2)c2cnc(C(F)(F)F)nc2)c1C (single isomer, unassigned; (+)) [(+)N-[3-cyclopropyl-2-[2-(trifluoromethyl)pyrimidin-5-yl]pro] [(+)N-[3-cyclopropyl-2-[2-(trifluoromethyl)pyrimidin-5-yl]propyl]-3-methoxy-2-methyl-benzamide] |
| 7.25 | O=C(NCC(c1cnc(C(F)(F)F)nc1)C1CCOCC1)c1c(F)cccc1Cl (single isomer, unassigned; (+)) [(+)2-chloro-6-fluoro-N-[2-tetrahydropyran-4-yl-2-[2-(trifluo] [(+)2-chloro-6-fluoro-N-[2-tetrahydropyran-4-yl-2-[2-(trifluoromethyl)pyrimidin-5-yl]ethyl]benzamide] |
| 8.17 | O=C(NCC(c1ccc(F)cc1)c1cnc(C(F)(F)F)nc1)c1c(F)cccc1Cl (single isomer, unassigned; (+)) [(+)2-chloro-6-fluoro-N-[2-(4-fluorophenyl)-2-[2-(trifluorome] [(+)2-chloro-6-fluoro-N-[2-(4-fluorophenyl)-2-[2-(trifluoromethyl)pyrimidin-5-yl]ethyl]benzamide] |
| 7.19 | O=C(NCC(c1cnc(C(F)(F)F)nc1)C1CCOCC1)c1cccc(F)c1Cl (single isomer, unassigned; (-)) [(−)2-chloro-3-fluoro-N-[2-tetrahydropyran-4-yl-2-[2-(trifluo] [(−)2-chloro-3-fluoro-N-[2-tetrahydropyran-4-yl-2-[2-(trifluoromethyl)pyrimidin-5-yl]ethyl]benzamide] |
| 7.19 | COc1ccc(F)c(C(=O)NCC2(c3ccc(F)nc3)CCC(F)(F)CC2)c1 [N-((4,4-difluoro-1-(6-fluoropyridin-3-yl)cyclohexyl)methyl)-2-fluoro-5-methoxybenzamide] |
| 8.66 | O=C(NCC(c1ccc(F)cc1)c1ccc(C(F)(F)F)nc1)c1ccccc1Cl (single isomer, unassigned; (+)) [(+)2-chloro-N-[2-(4-fluorophenyl)-2-[6-(trifluoromethyl)-3-p] [(+)2-chloro-N-[2-(4-fluorophenyl)-2-[6-(trifluoromethyl)-3-pyridyl]ethyl]benzamide] |
| 6.10 | O=C(NCC(CC1CC1)c1ccc(C(F)F)nc1)c1cccc(F)c1Cl (single isomer, unassigned; (+)) [(+)2-chloro-N-[3-cyclopropyl-2-[6-(difluoromethyl)-3-pyridyl] [(+)2-chloro-N-[3-cyclopropyl-2-[6-(difluoromethyl)-3-pyridyl]propyl]-3-fluoro-benzamide] |
| 5.92 | O=C(NCC1(c2ccc(Cl)cc2)CCOCC1)c1ccccc1C(F)(F)F [N-[4-(4-Chloro-phenyl)-tetrahydro-pyran-4-ylmethyl]-2-trifluoromethyl-benzamide] |
| 7.85 | O=C(NCC1(c2ccc(F)nc2)CCC(F)(F)CC1)c1ccccc1F [N-[4,4-Difluoro-1-(6-fluoro-pyridin-3-yl)-cyclohexylmethyl]-] [N-[4,4-Difluoro-1-(6-fluoro-pyridin-3-yl)-cyclohexylmethyl]-2-fluoro-benzamide] |

Same assay, conditions: listed as (+)N-[3-cyclopropyl-2-[6-(trifluoromethyl)-3-pyridyl]propyl]-2-methoxy-benzamide

| pIC50 | Compound |
| --- | --- |
| 6.00 | COc1ccccc1C(=O)NCC(CC1CC1)c1ccc(C(F)(F)F)nc1 (single isomer, unassigned) [Example 4p, (+)—N-(3-cyclopropyl-2-(6-(trifluoromethyl)pyridin-3-yl)propyl)-2-methoxybenzamide] |

Same assay, conditions: listed as (−)N-[3-cyclopropyl-2-[6-(trifluoromethyl)-3-pyridyl]propyl]-2-methoxy-benzamide

| pIC50 | Compound |
| --- | --- |
| 7.28 | COc1ccccc1C(=O)NCC(CC1CC1)c1ccc(C(F)(F)F)nc1 (single isomer, unassigned) [Example 4o, (−)—N-(3-cyclopropyl-2-(6-(trifluoromethyl)pyridin-3-yl)propyl)-2-methoxybenzamide] |

— US9102591B2, “Benzamides” (H. Lundbeck A/S, priority 2012, dated 2015)
